This assay has as its target PD-1/PD-L1 (Homo sapiens (Human), UniProt Q9NZQ7). In words: PD-1/PD-L1 Homogeneous Time-Resolved Fluorescence (HTRF) Binding Assay. The note with it: recombinant human PD-1 (3 nM) and PD-L1 (10 nM), 25° C., PBS pH 7.4. As to the method:
Example A. PD-1/PD-L1 Homogeneous Time-Resolved Fluorescence (HTRF) Binding Assay
The assays were conducted in a standard black 384-well polystyrene plate with a final volume of 20 μL. Inhibitors were first serially diluted in DMSO and then added to the plate wells before the addition of other reaction components. The final concentration of DMSO in the assay was 1%. The assays were carried out at 25° C. in the PBS buffer (pH 7.4) with 0.05% Tween-20 and 0.1% BSA. Recombinant human PD-L1 protein (19-238) with a His-tag at the C-terminus was purchased from AcroBiosystems (PD1-H5229). Recombinant human PD-1 protein (25-167) with Fc tag at the C-terminus was also purchased from AcroBiosystems (PD1-H5257). PD-L1 and PD-1 proteins were diluted in the assay buffer and 10 μL was added to the plate well. Plates were centrifuged and proteins were preincubated with inhibitors for 40 minutes. The incubation was followed by the addition of 10 μL of HTRF detection buffer supplemented with Europium cryptate-labeled anti-human IgG (PerkinElmer-AD0212) specific for Fc and anti-His antibody conjugated to SureLight®-Allophycocyanin (APC, PerkinElmer-AD0059H). After centrifugation, the plate was incubated at 25° C. for 60 min. before reading on a PHERAstar FS plate reader (665 nm/620 nm ratio). Final concentrations in the assay were—3 nM PD1, 10 nM PD-L1, 1 nM europium anti-human IgG and 20 nM anti-His-Allophycocyanin. IC50 determination was performed by fitting the curve of percent control activity versus the log of the inhibitor concentration using the GraphPad Prism 5.0 software.
In general terms: In TR-FRET formats the signal depends on donor and acceptor labels being close together.

The values below come from patent publication US10308644B2, “Heterocyclic compounds as immunomodulators” (Incyte Corporation, priority 2016, dated 2019).

pIC50: −log10 of the molar value.

Sequence of PD-1/PD-L1 (Q9NZQ7 19-238): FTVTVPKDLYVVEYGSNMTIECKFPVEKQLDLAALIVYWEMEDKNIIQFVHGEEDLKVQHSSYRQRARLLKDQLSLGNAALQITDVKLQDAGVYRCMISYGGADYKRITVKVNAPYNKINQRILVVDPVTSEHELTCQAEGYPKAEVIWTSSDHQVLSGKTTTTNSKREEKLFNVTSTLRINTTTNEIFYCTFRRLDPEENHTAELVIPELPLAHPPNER

On to `Cc1c(-c2nc3cc(CN4CC(C(=O)O)C4)cc(C#N)c3o2)cccc1-c1cccc(-c2nc3c(s2)CN(CCO)CC3)c1C` [Example 68, 1-((7-cyano-2-(3′-(5-(2-hydroxyethyl)-4,5,6,7-tetrahydrothiazolo[5,4-c]pyridin-2-yl)-2,2′-dimethyl-[1,1′-biphenyl]-3-yl)benzo[d]oxazol-5-yl)methyl)azetidine-3-carboxylic acid], for which the negative-log IC50 (pIC50) is ≥ 8.00.
Consider `Cc1c(-c2nc3cc(CN[C@@H](C)C(=O)O)cc(C#N)c3o2)cccc1-c1cccc(NC(=O)c2nc3c(n2C)CCN(C)C3)c1Cl` [Example 90, (S)-2-((2-(2′-chloro-3′-(1,5-dimethyl-4,5,6,7-tetrahydro-1H-imidazo[4,5-c]pyridine-2-carboxamido)-2-methylbiphenyl-3-yl)-7-cyanobenzo[d]oxazol-5-yl)methylamino)propanoic acid], for which the pIC50 is ≥ 8.00.
In the case of `Cc1c(-c2nc3cc(CN4CC[C@@H](C(=O)O)C4)cc(Cl)c3o2)cccc1-c1cccc(N2CCC(NC3CC3)CC2)c1Cl` [Example 44, (R)-1-((7-chloro-2-(2′-chloro-3′-(4-(cyclopropylamino)piperidin-1-yl)-2-methylbiphenyl-3-yl)benzo[d]oxazol-5-yl)methyl)pyrrolidine-3-carboxylic acid] it was ≥ 8.00; in that of `Cc1c(Nc2nccc3cc(CN4CC[C@@H](O)C4)cnc23)cccc1-c1cccc(-c2nc3cc(CN[C@@H]4CC[C@H](C(=O)O)C4)cc(C#N)c3o2)c1C` [Example 170, (1S,3R)-3-((7-cyano-2-(3′-(3-(((R)-3-hydroxypyrrolidin-1-yl)methyl)-1,7-naphthyridin-8-ylamino)-2,2′-dimethylbiphenyl-3-yl)benzo[d]oxazol-5-yl)methylamino)cyclopentanecarboxylic acid], ≥ 8.00.
Turning to `Cc1c(-c2nc3cc(CN4CC[C@@H](C(=O)NCCO)C4)cc(C#N)c3o2)cccc1-c1cccc(-c2nc3c(s2)CN(C(C)C)CC3)c1C` [Example 119, (R)-1-((7-cyano-2-(3′-(5-isopropyl-4,5,6,7-tetrahydrothiazolo[5,4-c]pyridin-2-yl)-2,2′-dimethyl-[1,1′-biphenyl]-3-yl)benzo[d]oxazol-5-yl)methyl)-N-(2-hydroxyethyl)pyrrolidine-3-carboxamide], the pIC50 is ≥ 8.00.
As to `Cc1c(-c2nc3cc(CN4CC[C@@H](C(=O)O)C4)cc(Cl)c3o2)cccc1-c1cccc(-c2nc3c(s2)CN(C(C)CO)CC3)c1C` (stereo partly drawn) [Example 62, (3R)-1-((7-chloro-2-(3′-(5-(1-hydroxypropan-2-yl)-4,5,6,7-tetrahydrothiazolo[5,4-c]pyridin-2-yl)-2,2′-dimethyl-[1,1′-biphenyl]-3-yl)benzo[d]oxazol-5-yl)methyl)pyrrolidine-3-carboxylic acid], the pIC50 was ≥ 8.00.
In the case of `Cc1c(-c2nc3cc(CN4CC[C@@H](C(=O)O)C4)cc(C#N)c3o2)cccc1-c1cccc(-c2nc3c(s2)CN(C(=O)CN2CC[C@@H](O)C2)C3)c1C` [Example 111, (R)-1-((7-cyano-2-(3′-(5-(2-((R)-3-hydroxypyrrolidin-1-yl)acetyl)-5,6-dihydro-4H-pyrrolo[3,4-d]thiazol-2-yl)-2,2′-dimethylbiphenyl-3-yl)benzo[d]oxazol-5-yl)methyl)pyrrolidine-3-carboxylic acid], the pIC50 is ≥ 8.00.
In the case of `CNC1CCN(c2cccc(-c3cccc(-c4nc5cc(CN6CC[C@@H](C(=O)O)C6)cc(Cl)c5o4)c3C)c2Cl)CC1` [Example 43, (R)-1-((7-chloro-2-(2′-chloro-2-methyl-3′-(4-(methylamino)piperidin-1-yl)biphenyl-3-yl)benzo[d]oxazol-5-yl)methyl)pyrrolidine-3-carboxylic acid] it was ≥ 8.00.
To `Cc1c(-c2nc3cc(CN4CC[C@@](C)(C(=O)O)C4)cc(C#N)c3o2)cccc1-c1cccc(-c2nc3c(s2)CN(C(=O)CN(C)C)C3)c1C` [Example 109, (R)-1-((7-cyano-2-(3′-(5-(2-(dimethylamino)acetyl)-5,6-dihydro-4H-pyrrolo[3,4-d]thiazol-2-yl)-2,2′-dimethylbiphenyl-3-yl)benzo[d]oxazol-5-yl)methyl)-3-methylpyrrolidine-3-carboxylic acid] belongs ≥ 8.00.

As usually defined, the pIC50 is the negative decadic logarithm of the IC50, by convention in mol/L.
